The supplement of paper PMC10883282

Tests used:
Test in all cases: relative viability vs DMSO control (72 h) (fraction); higher = more viable cells
[1] = system: G401
Outline: (§1)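 Relative viability is percent growth read by ATPLite and averaged over up to triplicate wells. Sarcoma cells were seeded in 384-well plates to reach 80–90% confluence and given 2.5 µl of serially diluted compound after 24 h, from source plates of 10 mM to 0.0002 mM. Incubation lasted 72 h at 37 °C, 5% CO2, with 0.1% DMSO vehicle and a 5 µM positive control, and the data were rescaled so 1 equals full and 0 equals none.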

[2] = system: HS729
Outline: as §1

[3] = system: HT1080
Outline: as §1

[4] = system: KHOS-240S
Outline: as §1

[5] = system: KHOS-NP
Outline: as §1

[6] = system: RD-ES
Outline: as §1

[7] = system: RD
Outline: as §1

[8] = system: SK-LMS-1
Outline: as §1

[9] = system: SW1353
Outline: as §1

[10] = system: SW684
Outline: as §1

[11] = system: SW872
Outline: as §1

[12] = system: SYO-1
Outline: as §1

CCN1C(=O)N(c2c(F)c(OC)cc(OC)c2F)Cc2cnc3[nH]c(CN4CCOCC4)cc3c21 [Pemigatinib]
Details	relative viability
[1], 0.00017 µM	0.978
[1], 0.00051 µM	0.982
[1], 0.00152 µM	0.93
[1], 0.00457 µM	0.8789
[1], 0.01372 µM	0.746
[1], 0.04115 µM	0.7
[1], 0.1235 µM	0.614
[1], 0.3704 µM	0.585
[1], 1.111 µM	0.518
[1], 3.333 µM	0.379
[1], 10 µM	0.349
[2], 0.00017 µM	1
[2], 0.00051 µM	0.95
[2], 0.00152 µM	0.912
[2], 0.00457 µM	0.92
[2], 0.01372 µM	0.843
[2], 0.04115 µM	0.751
[2], 0.1235 µM	0.644
[2], 0.3704 µM	0.622
[2], 1.111 µM	0.544
[2], 3.333 µM	0.484
[2], 10 µM	0.444
[3], 0.00017 µM	1.05
[3], 0.00051 µM	1.09
[3], 0.00152 µM	1.06
[3], 0.00457 µM	1.06
[3], 0.01372 µM	1.036
[3], 0.04115 µM	1.1
[3], 0.1235 µM	1.09
[3], 0.3704 µM	1.07
[3], 1.111 µM	1.104
[3], 3.333 µM	0.875
[3], 10 µM	0.807
[4], 0.00017 µM	1.03
[4], 0.00051 µM	1.03
[4], 0.00152 µM	0.999
[4], 0.00457 µM	1
[4], 0.01372 µM	0.943
[4], 0.04115 µM	0.917
[4], 0.1235 µM	0.884
[4], 0.3704 µM	0.862
[4], 1.111 µM	0.841
[4], 3.333 µM	0.789
[4], 10 µM	0.687
[5], 0.00017 µM	1.09
[5], 0.00051 µM	1.06
[5], 0.00152 µM	1.088
[5], 0.00457 µM	1.088
[5], 0.01372 µM	1.055
[5], 0.04115 µM	1.065
[5], 0.1235 µM	1.07
[5], 0.3704 µM	1.05
[5], 1.111 µM	1.06
[5], 3.333 µM	1.08
[5], 10 µM	1.05
[6], 0.00017 µM	0.959
[6], 0.00051 µM	0.951
[6], 0.00152 µM	0.953
[6], 0.00457 µM	0.959
[6], 0.01372 µM	0.964
[6], 0.04115 µM	0.955
[6], 0.1235 µM	0.952
[6], 0.3704 µM	0.958
[6], 1.111 µM	0.859
[6], 3.333 µM	0.7215
[6], 10 µM	0.54
[7], 0.00017 µM	1.02
[7], 0.00051 µM	1.07
[7], 0.00152 µM	1.06
[7], 0.00457 µM	1.06
[7], 0.01372 µM	1.04
[7], 0.04115 µM	1.04
[7], 0.1235 µM	1.03
[7], 0.3704 µM	1.04
[7], 1.111 µM	0.946
[7], 3.333 µM	0.7043
[7], 10 µM	0.665
[8], 0.00017 µM	1.05
[8], 0.00051 µM	1.09
[8], 0.00152 µM	1.105
[8], 0.00457 µM	1.08
[8], 0.01372 µM	1.09
[8], 0.04115 µM	1.07
[8], 0.1235 µM	1.07
[8], 0.3704 µM	1.07
[8], 1.111 µM	0.9589
[8], 3.333 µM	0.667
[8], 10 µM	0.528
[9], 0.00017 µM	1.06
[9], 0.00051 µM	1.02
[9], 0.00152 µM	1.02
[9], 0.00457 µM	0.964
[9], 0.01372 µM	0.886
[9], 0.04115 µM	0.879
[9], 0.1235 µM	0.863
[9], 0.3704 µM	0.843
[9], 1.111 µM	0.836
[9], 3.333 µM	0.716
[9], 10 µM	0.539
[10], 0.00017 µM	1.1
[10], 0.00051 µM	1.12
[10], 0.00152 µM	1.13
[10], 0.00457 µM	1.07
[10], 0.01372 µM	1.12
[10], 0.04115 µM	1.07
[10], 0.1235 µM	1.05
[10], 0.3704 µM	1.13
[10], 1.111 µM	1.1
[10], 3.333 µM	0.971
[10], 10 µM	0.802
[11], 0.00017 µM	1.02
[11], 0.00051 µM	1.01
[11], 0.00152 µM	1
[11], 0.00457 µM	1.02
[11], 0.01372 µM	0.999
[11], 0.04115 µM	0.999
[11], 0.1235 µM	0.964
[11], 0.3704 µM	0.975
[11], 1.111 µM	0.911
[11], 3.333 µM	0.739
[11], 10 µM	0.713
[12], 0.00017 µM	0.97
[12], 0.00051 µM	0.962
[12], 0.00152 µM	0.89
[12], 0.00457 µM	0.86
[12], 0.01372 µM	0.774
[12], 0.04115 µM	0.763
[12], 0.1235 µM	0.733
[12], 0.3704 µM	0.725
[12], 1.111 µM	0.687
[12], 3.333 µM	0.652
[12], 10 µM	0.635

COc1cc(OC)c(/C=C/S(=O)(=O)Cc2ccc(OC)c(NCC(=O)O)c2)c(OC)c1 [Rigosertib]
Details	relative viability
[1], 0.00017 µM	1.01
[1], 0.00051 µM	1
[1], 0.00152 µM	0.993
[1], 0.00457 µM	1.02
[1], 0.01372 µM	1.04
[1], 0.04115 µM	1.01
[1], 0.1235 µM	0.983
[1], 0.3704 µM	0.919
[1], 1.111 µM	0.534
[1], 3.333 µM	0.424
[1], 10 µM	0.361
[2], 0.00017 µM	0.973
[2], 0.00051 µM	0.989
[2], 0.00152 µM	0.934
[2], 0.00457 µM	0.938
[2], 0.01372 µM	1.02
[2], 0.04115 µM	0.966
[2], 0.1235 µM	0.928
[2], 0.3704 µM	0.85
[2], 1.111 µM	0.625
[2], 3.333 µM	0.579
[2], 10 µM	0.517
[3], 0.00017 µM	1.07
[3], 0.00051 µM	1.03
[3], 0.00152 µM	1.07
[3], 0.00457 µM	1.06
[3], 0.01372 µM	1.05
[3], 0.04115 µM	1.08
[3], 0.1235 µM	1.06
[3], 0.3704 µM	0.412
[3], 1.111 µM	0.0983
[3], 3.333 µM	0.0596
[3], 10 µM	0.0541
[4], 0.00017 µM	1.06
[4], 0.00051 µM	1.07
[4], 0.00152 µM	1.051
[4], 0.00457 µM	1.05
[4], 0.01372 µM	1.03
[4], 0.04115 µM	0.981
[4], 0.1235 µM	0.385
[4], 0.3704 µM	0.228
[4], 1.111 µM	0.168
[4], 3.333 µM	0.15
[4], 10 µM	0.135
[5], 0.00017 µM	1.09
[5], 0.00051 µM	1.09
[5], 0.00152 µM	1.1
[5], 0.00457 µM	1.11
[5], 0.01372 µM	1.1
[5], 0.04115 µM	1.11
[5], 0.1235 µM	1.08
[5], 0.3704 µM	0.704
[5], 1.111 µM	0.478
[5], 3.333 µM	0.414
[5], 10 µM	0.357
[6], 0.00017 µM	0.999
[6], 0.00051 µM	1
[6], 0.00152 µM	1
[6], 0.00457 µM	0.993
[6], 0.01372 µM	1.01
[6], 0.04115 µM	1
[6], 0.1235 µM	0.732
[6], 0.3704 µM	0.143
[6], 1.111 µM	0.0474
[6], 3.333 µM	0.031
[6], 10 µM	0.027
[7], 0.00017 µM	1.08
[7], 0.00051 µM	1.09
[7], 0.00152 µM	1.08
[7], 0.00457 µM	1.094
[7], 0.01372 µM	1.05
[7], 0.04115 µM	1.04
[7], 0.1235 µM	0.825
[7], 0.3704 µM	0.372
[7], 1.111 µM	0.215
[7], 3.333 µM	0.23
[7], 10 µM	0.256
[8], 0.00017 µM	1.08
[8], 0.00051 µM	1.05
[8], 0.00152 µM	1.05
[8], 0.00457 µM	1.03
[8], 0.01372 µM	1.03
[8], 0.04115 µM	0.912
[8], 0.1235 µM	0.659
[8], 0.3704 µM	0.492
[8], 1.111 µM	0.359
[8], 3.333 µM	0.355
[8], 10 µM	0.325
[9], 0.00017 µM	1
[9], 0.00051 µM	1.01
[9], 0.00152 µM	0.994
[9], 0.00457 µM	0.989
[9], 0.01372 µM	0.992
[9], 0.04115 µM	0.968
[9], 0.1235 µM	0.932
[9], 0.3704 µM	0.702
[9], 1.111 µM	0.426
[9], 3.333 µM	0.428
[9], 10 µM	0.429
[10], 0.00017 µM	1.14
[10], 0.00051 µM	1.2
[10], 0.00152 µM	1.15
[10], 0.00457 µM	1.19
[10], 0.01372 µM	1.19
[10], 0.04115 µM	1.15
[10], 0.1235 µM	1.02
[10], 0.3704 µM	0.73
[10], 1.111 µM	0.681
[10], 3.333 µM	0.713
[10], 10 µM	0.756
[11], 0.00017 µM	1.04
[11], 0.00051 µM	1.05
[11], 0.00152 µM	1.05
[11], 0.00457 µM	1.06
[11], 0.01372 µM	1.045
[11], 0.04115 µM	1.06
[11], 0.1235 µM	1.019
[11], 0.3704 µM	0.927
[11], 1.111 µM	0.515
[11], 3.333 µM	0.479
[11], 10 µM	0.477
[12], 0.00017 µM	0.957
[12], 0.00051 µM	0.982
[12], 0.00152 µM	0.96
[12], 0.00457 µM	0.961
[12], 0.01372 µM	0.942
[12], 0.04115 µM	0.966
[12], 0.1235 µM	0.941
[12], 0.3704 µM	0.896
[12], 1.111 µM	0.3561
[12], 3.333 µM	0.287
[12], 10 µM	0.305
